Test results taken from the supplement of paper PMC9262897, “Low-cost anti-mycobacterial drug discovery using engineered E. coli” (Nature Communications, 2022).

Legend:
∆tolC ∆entC = experiment: growth (OD600 after 24 h); higher = more growth
Procedure: (§1)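 E. coli BW25113 ΔaraC (Efflux+) or efflux-pump deletion strains (ΔtolC ΔentC, ΔemrE, ΔmdtI, ΔyeeO, ΔmdtK, ΔmdtM) diluted 1:100 in M9-based medium with a drug dilution series. Growth is read as OD600 after 24 h; 3 biological replicates.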

∆emrE = experiment: growth (OD600 after 24 h); higher = more growth
Procedure: as §1

∆mdtI = experiment: growth (OD600 after 24 h); higher = more growth
Procedure: as §1

∆yeeO = experiment: growth (OD600 after 24 h); higher = more growth
Procedure: as §1

∆mdtK = experiment: growth (OD600 after 24 h); higher = more growth
Procedure: as §1

Efflux+ = experiment: growth (OD600 after 24 h); higher = more growth
Procedure: as §1

∆mdtM = experiment: growth (OD600 after 24 h); higher = more growth
Procedure: as §1

[1] = system: E. coli TESEC strain (Mtb target enzyme); experiment: growth (OD600 after 10 h); higher = more growth
Procedure: (§2)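 Chemical-genetic validation profiles: TESEC strains (Mtb Asd or DapB, arabinose-inducible) or the wild-type control grown in a two-dimensional dilution series of drug (µM) and arabinose. Growth is read as OD600 after 10 h in triplicate.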

[2] = system: E. coli wild-type control; experiment: growth (OD600 after 10 h); higher = more growth
Procedure: as §2

Nc1nc2ccc(OC(F)(F)F)cc2s1 [Riluzole]
growth
Conditions	Efflux+	∆emrE	∆mdtI	∆mdtK	∆mdtM	∆tolC ∆entC	∆yeeO
drug 16 µM	1.09	0.961	1.06	0.831	0.802	1.05	0.958
drug 31 µM	1.038	1.06	1.045	0.799	0.79	1.09	0.905
drug 62 µM	0.997	1.08	1.01	0.788	0.776	1.02	0.851
drug 125 µM	0.978	1.12	0.981	0.749	0.74	0.97	0.909
drug 250 µM	0.973	1.09	0.9767	0.741	0.785	0.634	0.857
drug 500 µM	0.74	0.8264	0.634	0.669	0.527	0.0507	0.703

Nc1nc2ccc(OC(F)(F)F)cc2s1 [Riluzole] (TESEC target enzyme: Mtb Asd)
growth
Conditions	drug 1.7 µM	drug 3.9 µM	drug 8.7 µM	drug 19.5 µM	drug 43.9 µM	drug 98.8 µM	drug 222.2 µM
[1], arabinose 15560 nM	0.165	0.155	–	–	–	–	–
[1], arabinose 28008 nM	0.133	0.157	–	–	–	–	–
[1], arabinose 50414 nM	0.166	0.157	–	–	–	–	–
[1], arabinose 90744 nM	0.192	0.171	–	–	–	–	–
[1], arabinose 163340 nM	0.22	0.199	–	–	–	–	–
[1], arabinose 294012 nM	0.261	0.239	–	–	–	–	–
[1], arabinose 529221 nM	0.271	0.263	–	–	–	–	–
[1], arabinose 952599 nM	0.28	0.312	–	–	–	–	–
[1], arabinose 1714678 nM	0.284	0.319	–	–	–	–	–
[1], arabinose 3086420 nM	0.246	0.237	–	–	–	–	–
[1], arabinose 5555556 nM	0.236	0.223	–	–	–	–	–
[1], arabinose 10000000 nM	0.215	0.224	–	–	–	–	–
[2], arabinose 15560 nM	0.226	0.226	0.232	0.219	0.202	0.188	–
[2], arabinose 28008 nM	0.2085	0.207	0.219	0.223	0.208	0.197	–
[2], arabinose 50414 nM	0.234	0.217	0.222	0.235	0.207	0.202	–
[2], arabinose 90744 nM	0.232	0.243	0.222	0.286	0.22	0.205	–
[2], arabinose 163340 nM	0.227	0.236	0.232	0.237	0.217	0.216	–
[2], arabinose 294012 nM	0.229	0.227	0.2601	0.231	0.221	0.216	–
[2], arabinose 529221 nM	0.227	0.236	0.226	0.208	0.221	0.231	–
[2], arabinose 952599 nM	0.2317	0.226	0.263	0.207	0.233	0.235	0.123
[2], arabinose 1714678 nM	0.195	0.2	0.235	0.193	0.233	0.213	0.115
[2], arabinose 3086420 nM	0.148	0.149	0.183	0.214	0.236	0.231	0.122
[2], arabinose 5555556 nM	0.154	0.157	0.196	0.157	0.171	0.19	0.126
[2], arabinose 10000000 nM	0.148	0.165	0.146	0.21	0.162	0.202	–

N=C(N)c1ccc(OCCCCCOc2ccc(C(=N)N)cc2)cc1 [Pentamidine]
growth
Conditions	Efflux+	∆emrE	∆mdtI	∆mdtK	∆mdtM	∆tolC ∆entC	∆yeeO
drug 6.25 µM	0.978	0.879	1.003	0.814	0.809	0.996	0.845
drug 12.5 µM	0.894	0.8324	0.936	0.77	0.7967	0.854	0.833
drug 25 µM	0.88	0.826	0.89493	0.68	0.779	0.804	0.79
drug 50 µM	0.805	0.811	0.837	0.513	0.745	0.709	0.758
drug 100 µM	0.635	0.739	0.655	0.367	0.614	0.389	0.637
drug 200 µM	0.337	0.615	0.352	0.212	0.502	0.0928	0.34

CN(Cc1cc(Br)cc(Br)c1N)C1CCCCC1 [Bromhexine] (TESEC target enzyme: Mtb Asd)
growth
Conditions	drug 0.3 µM	drug 0.8 µM	drug 1.7 µM	drug 3.9 µM	drug 8.8 µM	drug 19.8 µM	drug 44.4 µM
[1], arabinose 15560 nM	0.18	0.153	–	–	–	–	–
[1], arabinose 28008 nM	0.229	0.178	–	–	–	–	–
[1], arabinose 50414 nM	0.207	0.177	–	–	–	–	–
[1], arabinose 90744 nM	0.215	0.211	–	–	–	–	–
[1], arabinose 163340 nM	0.257	0.239	–	–	–	–	–
[1], arabinose 294012 nM	0.293	0.302	–	–	–	–	–
[1], arabinose 529221 nM	0.32	0.291	–	–	–	–	–
[1], arabinose 952599 nM	0.355	0.368	–	–	–	–	–
[1], arabinose 1714678 nM	0.336	0.387	–	–	–	–	–
[1], arabinose 3086420 nM	0.328	0.361	–	–	–	–	–
[1], arabinose 5555556 nM	0.321	0.333	–	–	–	–	–
[1], arabinose 10000000 nM	0.341	0.34	–	–	–	–	–
[2], arabinose 15560 nM	0.134	0.163	0.156	0.16	0.172	0.162	–
[2], arabinose 28008 nM	0.149	0.159	0.162	0.172	0.164	0.1736	–
[2], arabinose 50414 nM	0.17	0.144	0.17	0.16	0.157	0.172	–
[2], arabinose 90744 nM	0.167	0.21	0.174	0.193	0.178	0.177	–
[2], arabinose 163340 nM	0.157	0.178	0.161	0.187	0.146	0.194	–
[2], arabinose 294012 nM	0.156	0.191	0.204	0.229	0.182	0.198	–
[2], arabinose 529221 nM	0.18	0.202	0.201	0.194	0.186	0.221	–
[2], arabinose 952599 nM	0.238	0.231	0.209	0.214	0.214	0.236	0.203
[2], arabinose 1714678 nM	0.213	0.221	0.208	0.232	0.223	0.253	0.198
[2], arabinose 3086420 nM	0.207	0.23	0.212	0.254	0.204	0.267	0.235
[2], arabinose 5555556 nM	0.189	0.214	0.206	0.198	0.201	0.218	0.232
[2], arabinose 10000000 nM	0.174	0.21	0.163	0.217	0.173	0.21	–

CN(Cc1cc(Br)cc(Br)c1N)C1CCCCC1 [Bromhexine]
growth
Conditions	Efflux+	∆emrE	∆mdtI	∆mdtK	∆mdtM	∆tolC ∆entC	∆yeeO
drug 3 µM	1.027	0.992	1.04	0.772	0.825	0.894	0.897
drug 6.25 µM	0.989	1.08	1.01	0.792	0.819	0.989	0.881
drug 12.5 µM	0.974	1.06	0.992	0.762	0.805	0.94	0.881
drug 25 µM	0.9831	1.02	0.996	0.737	0.8363	0.564	0.8876
drug 50 µM	1	1.02	0.994	0.743	0.8474	0.05317	0.905
drug 100 µM	0.998	1.04	0.9907	0.7706	0.8478	0.0597	0.917
